Patent US11819483B2, “Combination therapy to treat urea cycle disorders” (Baylor College of Medicine, priority 2017, dated 2023)
Read-outs that look alike come from different tables or passages of the source. Marks after values point to notes of the source that are not given here.

Columns and labels:
[1] = clinical; conditions: human, in vivo
[2] = Urinary excretion of phenylbutyrate, benzoate and their conjugated products; nitrogen conjugation in 24 h urine; conditions: for Total N excreted as conjugated products, % test meal: fraction of nitrogen content of test meal; for efficacy of conjugation (percent of dose recovered as conjugate in 24 h urine): given as sole treatments, highest dose; for Conjugation efficacy: nitrogen conjugated divided by amount of drug provided
Experimental: (§1) This was a randomized, three-arm, crossover study. Each arm was completed over a four-day period with a washout period of at least 7 days between any two of the treatment arms (FIG. 1). […] The treatments were designed to provide isomolar amount of drugs and the total daily dose was administered in three equally divided doses.
(§2) On day 1 of study arm 1, detailed medical history review and physical examination were performed. Complete blood count, comprehensive metabolic panel, plasma ammonia, and urinalysis (safety laboratory measurements) were performed. Urine pregnancy test was performed on all females. Meals prepared at the CNRC to provide 0.8 g·kg^−1·day^−1 protein and 32 kcal·kg^−1·day^−1 were given for next three days. The standardized protein and caloric intake allowed for comparison of nitrogen excretion among the three arms. Subjects were randomized to a predetermined treatment sequence and the first dose of the appropriate medication was administered under supervision. Subjects took the study medication with meals for three days (08:00 breakfast; 13:00 lunch; 19:00 dinner) (FIG. 1). […] On day 3, subjects omitted the 19:00 dose of the medication to prevent interference with the analysis on day 4 from metabolite conjugates from the previous day. On day 4, fasting blood sample was obtained for the determination of plasma amino acids and urea concentrations, background isotopic enrichments, basic metabolic profile, complete blood count, and plasma concentrations of phenylbutyrate, benzoate, PAGN, and HA. Urine was collected for measurements of urea, phenylbutyrate, benzoate, PAGN, and HA. At 0 hours, the test meal containing half of the daily dietary allowance of protein (0.4 g·kg^−1) was provided by a commercial liquid meal replacement (Ensure Plus, Abbott, Abbot Park, Ill.) and ^15N labeled spirulina (40 mg·kg^−1; ISOTEC, Miamisburg, Ohio). […] A dose of 40 mg·kg^−1 labeled ^15N-labeled spirulina was estimated to result in dietary enrichment of ˜5 mole percent excess. The morning meal, which was ingested in ˜10 minutes, was followed by a dose of study medication and an intravenous bolus dose of urea tracer, [^13C^18O]urea (6 mmol/subject; ISOTEC, Miamisburg, Ohio). Blood samples to determine concentrations and isotopic enrichments of the drugs and their conjugated products, as well as amino acids and urea were collected every 30 minutes for the first four hours and then hourly between hours 4 and 8 (FIG. 1). Urine was collected in four 2-hour batched periods during the eight hour admission period. […] The procedures for the study arms 2 and 3 were identical to those performed in arm 1.
(§3) Plasma and urinary drugs and their conjugated products as well as urea and amino acids were determined by mass spectrometry and quantitated based on the dilution of labeled internal standards. Total urinary nitrogen was determined using the micro-Kjeldahl method.
Plasma and urinary phenylbutyrate, PAA, and benzoate were determined as their pentafluorobenzyl derivatives by NCI-GC-MS; . [^2H5] […] 4-phenylbutyric acids (C/D/N Isotopes, Quebec, Canada) were used as internal standards. Underivatized PAGN and HA were measured by HESI LC-MS/MS; [^2H5] PAGN and [^2H5] HA (C/D/N Isotopes, Quebec, Canada) were used as internal standards.
Accordingly, these background values were subtracted from the values obtained during the treatment with phenylbutyrate and benzoate. The total amount of nitrogen conjugated was expressed as fraction of the test meal, by dividing by the total nitrogen content of the test meal. The conjugation of dietary nitrogen was calculated as the amount of ^15N conjugated by multiplying the total amount of nitrogen conjugated by the respective ^15N enrichment. For PAGN, the labeling of the amino and amido group were considered.

[3] = Urea metabolism and total urinary nitrogen excretion; type: in vivo, human; design: Urinary urea-^15N: unit not given here; conditions: for Urinary N: N intake 9.81 g/d; for Urea production: [^13C^18O]urea tracer, day 4; for ^15N as % of test meal: urinary urea ^15N
Experimental: as §1, §2, §3
Plasma amino acids concentrations and enrichments were determined by HESI LC-MS/MS. A cell free U-[^13C^15N] amino acid mix was used as internal standard. Total urinary nitrogen was determined using the micro-Kjeldahl method.

[4] = day 4
[5] = plasma
[6] = 24 h urine, ^15N labeled test meal
[7] = 24 h urine, background subtracted

Molecule | urinary excretion of unconjugated drug ([2]; 24 h urine) | % N excreted from daily intake ([3]; 24 h urine) [%] | Urea N as a % total urinary N ([3]; 24 h urine) [%] | Urinary Urea N ([3]; 24 h urine) [g/day] | Urinary N ([3]; 24 h urine) [g/day] | Urea production [3] [µmol/kg/h] | ^15N as % of test meal ([3]; 24 h urine) [%] | Total 15N in conjugated products, % test meal [2, 6] [% test meal] | Total N excreted as conjugated products, % test meal ([2]; 24 h urine) | efficacy of conjugation (percent of dose recovered as conjugate in 24 h urine) [2] [%] | Conjugation efficacy ([2]; gram basis) | Conjugation efficacy ([2]; molar basis) | also measured
O=C(O)CNC(=O)c1ccccc1 [hippuric acid] |  |  |  |  |  |  |  |  |  |  |  |  | Tmax [1]: 2.2 h
O=C(O)Cc1ccccc1 [PAA, phenylacetate] | negligible |  |  |  |  |  |  |  |  |  |  |  | 
O=C([O-])c1ccccc1.[Na+] [NaBz, sodium benzoate] | negligible | 65.1 | 65.1 | 4.20 | 6.38 | 197 | 14.7 | 1.51 | 4.65 ^b % test meal | ~65 | 64.2^b mg N/g drug | 9.25^b mg N/mmol drug | Urinary excretion of Bz ([2]; 24 h urine): 6.5 μmol/24 h; Urinary excretion of Bz, % of dose ([2]; 24 h urine): 0.02 % of dose; Urinary HA (Conjugated ^15N Products) [2, 6]: 253.9 μmol/24 h; Urinary excretion of HA [2, 7]: 16.4 mmol/24 h; Urinary excretion of HA, % of dose ([2]; 24 h urine, percent of benzoate dose recovered as HA): 66.1 % of dose; Bz AUC0-8 ([4]; plasma benzoate, 0 to 8 h): 301.7 µmol/L; Bz Tmax ([4]; plasma benzoate): 1.6^b h; Bz Tmax ([4]; plasma benzoate, listed as benzoate): ~1.5 h; Benzoate Cmax and AUC0-8, NaBz arm relative to MIX arm ([4]; plasma): 4-5 times; Cmax ([4]; read-out: Bz Cmax, plasma benzoate): 217 µM
sodium phenylbutyrate [NaPB] | negligible | 65.6 | 63.6 | 4.16 | 6.47 | 192 | 15.2 | 1.62 | 8.74 ^a % test meal | ~65 | 92.5^ab mg N/g drug | 17.2^a mg N/mmol drug | Urinary urea-^15N [3, 6]: 37.0; Total N excreted as conjugated products ([2]; 24 h urine): 30.7 mmol/24 h; Urinary excretion of PAA ([2]; 24 h urine): 40.3 μmol/24 h; Urinary excretion of PAA, % of dose ([2]; 24 h urine): 0.16 % of dose; Urinary excretion of PB ([2]; 24 h urine): 32.3 μmol/24 h; Urinary excretion of PB, % of dose ([2]; 24 h urine): 0.13 % of dose; Urinary 2&5-[^15N] PAGN [2, 6]: 38.9 μmol/24 h; Urinary 2-[^15N] PAGN [2, 6]: 43.9 μmol/24 h; Urinary excretion of PAGN [2, 7]: 15.3 mmol/24 h; Urinary excretion of PAGN, % of dose ([2]; 24 h urine, percent of phenylbutyrate dose recovered as PAGN): 61.5 % of dose; leucine AUC0-8 ([5]; response to phenylbutyrate inclusion in the treatment, P=0.032): reduction; tryptophan AUC0-8 ([5]; response to phenylbutyrate, P<0.001): reduction
